Key:
[1] = test system: HEK293 cells; test: Preliminary screening as mRNA vectors, EGFP mRNA transfection of HEK293 cells; type: cell-based; conditions: HEK293 cells, 96-well plates, EGFP mRNA 50 ng per well; percentage of GFP fluorescent cells relative to total number of cells (Hoechst)
Method in brief: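 Each well of HEK293 cells received 50 ng of EGFP mRNA. Efficiency was expressed as percent GFP-expressing cells over Hoechst-defined total cell number.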

[2] = test system: HEK293 cells; test: Preliminary screening as DNA vectors, GFP transfection of HEK293 cells; type: cell-based; conditions: HEK293 cells; lipid/DOPE liposome with 75 ng plasmid DNA (psin-EGFP-IRES-Puro); number of cells expressing GFP divided by total number of nuclei (Hoechst)
Method in brief: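 Lipid + DOPE liposomes (NaOAc, pH 5.6) complexed w/ 75 ng psin-EGFP-IRES-Puro, 30 min RT; added to 3-5×10^4 HEK293/well, 37° C. Hoechst 0.2 μg/mL at 20-24 h, imaged after further 20-24 h. Efficiency = GFP+ cells / total nuclei.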

| SMILES | Absolute mRNA transfection efficiency in HEK293 cells [1] | Absolute DNA transfection efficiency in HEK293 cells [2] |
| --- | --- | --- |
| CCCCCCCCCCCCSc1nc(NCCN(C)C)nc(SCCCCCCCCCC)n1 [Compound S10S12D1] | 0.0% | 6.6% |
| CCCCCCCCCCCCSc1nc(NCCN2CCOCC2)nc(SCCCCCCCCCC)n1 [Compound S10S12D2] | 0.0% | 2.4% |
| CCCCCCCCCCCCSc1nc(NCCN2CCCC2)nc(SCCCCCCCCCC)n1 [Compound S10S12D3] | 7.6% | 8.2% |
| CCCCCCCCCCCCSc1nc(NCCN2CCCCC2)nc(SCCCCCCCCCC)n1 [Compound S10S12D4] | 3.4% | 12.0% |
| CCCCCCCCCCCCSc1nc(NCCN2CCN(C)CC2)nc(SCCCCCCCCCC)n1 [Compound S10S12D5] | 33.5% | 9.8% |
| CCCCCCCCCCCCSc1nc(NCCCN(C)C)nc(SCCCCCCCCCC)n1 [Compound S10S12D6] | 82.4% | 16.2% |
| CCCCCCCCCCCCSc1nc(NCCN(CC)CC)nc(SCCCCCCCCCC)n1 [Compound S10S12D7] | 0.0% | 7.2% |
| CCCCCCCCCCCCSc1nc(NCCCN2CCOCC2)nc(SCCCCCCCCCC)n1 [Compound S10S12D8] | 5.4% | 20.9% |
| CCCCCCCCCCCCSc1nc(NCCCN2CCN(C)CC2)nc(SCCCCCCCCCC)n1 [Compound S10S12D9] | 53.7% | 28.1% |
| CCCCCCCCCCCCSc1nc(NCC2CCN(C)CC2)nc(SCCCCCCCCCC)n1 [Compound S10S12D10] | 91.0% | 13.7% |
| CCCCCCCCCCCCCCSc1nc(NCCN(C)C)nc(SCCCCCCCCCC)n1 [Compound S10S14D1] | 0.1% | 8.5% |
| CCCCCCCCCCCCCCSc1nc(NCCN2CCOCC2)nc(SCCCCCCCCCC)n1 [Compound S10S14D2] | 0.2% | 1.5% |
| CCCCCCCCCCCCCCSc1nc(NCCN2CCCC2)nc(SCCCCCCCCCC)n1 [Compound S10S14D3] | 0.6% | 7.9% |
| CCCCCCCCCCCCCCSc1nc(NCCN2CCCCC2)nc(SCCCCCCCCCC)n1 [Compound S10S14D4] | 0.2% | 5.9% |
| CCCCCCCCCCCCCCSc1nc(NCCN2CCN(C)CC2)nc(SCCCCCCCCCC)n1 [Compound S10S14D5] | 12.9% | 15.7% |
| CCCCCCCCCCCCCCSc1nc(NCCCN(C)C)nc(SCCCCCCCCCC)n1 [Compound S10S14D6] | 48.6% | 26.9% |
| CCCCCCCCCCCCCCSc1nc(NCCN(CC)CC)nc(SCCCCCCCCCC)n1 [Compound S10S14D7] | 1.3% | 2.6% |
| CCCCCCCCCCCCCCSc1nc(NCCCN2CCOCC2)nc(SCCCCCCCCCC)n1 [Compound S10S14D8] | 7.5% | 18.9% |
| CCCCCCCCCCCCCCSc1nc(NCCCN2CCN(C)CC2)nc(SCCCCCCCCCC)n1 [Compound S10S14D9] | 5.7% | 3.9% |
| CCCCCCCCCCCCCCSc1nc(NCC2CCN(C)CC2)nc(SCCCCCCCCCC)n1 [Compound S10S14D10] | 37.7% | 23.0% |
| CCCCCCCCCCCCCCCSc1nc(NCCN(C)C)nc(SCCCCCCCCCC)n1 [Compound S10S15D1] | 0.0% | 6.8% |

| SMILES | Absolute mRNA transfection efficiency in HEK293 cells [1] | Absolute DNA transfection efficiency in HEK293 cells [2] |
| --- | --- | --- |
| CCCCCCCCCCCCCCCSc1nc(NCCN2CCOCC2)nc(SCCCCCCCCCC)n1 [Compound S10S15D2] | 0.7% | 7.7% |
| CCCCCCCCCCCCCCCSc1nc(NCCN2CCCC2)nc(SCCCCCCCCCC)n1 [Compound S10S15D3] | 19.6% | 7.6% |
| CCCCCCCCCCCCCCCSc1nc(NCCN2CCCCC2)nc(SCCCCCCCCCC)n1 [Compound S10S15D4] | 0.7% | 7.5% |
| CCCCCCCCCCCCCCCSc1nc(NCCN2CCN(C)CC2)nc(SCCCCCCCCCC)n1 [Compound S10S15D5] | 9.4% | 3.7% |
| CCCCCCCCCCCCCCCSc1nc(NCCCN(C)C)nc(SCCCCCCCCCC)n1 [Compound S10S15D6] | 24.6% | 32.8% |
| CCCCCCCCCCCCCCCSc1nc(NCCN(CC)CC)nc(SCCCCCCCCCC)n1 [Compound S10S15D7] | 0.0% | 7.2% |
| CCCCCCCCCCCCCCCSc1nc(NCCCN2CCOCC2)nc(SCCCCCCCCCC)n1 [Compound S10S15D8] | 11.1% | 15.2% |
| CCCCCCCCCCCCCCCSc1nc(NCCCN2CCN(C)CC2)nc(SCCCCCCCCCC)n1 [Compound S10S15D9] | 3.8% | 3.9% |
| CCCCCCCCCCCCCCCSc1nc(NCC2CCN(C)CC2)nc(SCCCCCCCCCC)n1 [Compound S10S15D10] | 19.4% | 55.8% |
| CCCCCCCCCCCCCCCCSc1nc(NCCN(C)C)nc(SCCCCCCCCCC)n1 [Compound S10S16D1] | 0.1% | 7.2% |
| CCCCCCCCCCCCCCCCSc1nc(NCCN2CCOCC2)nc(SCCCCCCCCCC)n1 [Compound S10S16D2] | 0.3% | 0.1% |
| CCCCCCCCCCCCCCCCSc1nc(NCCN2CCCC2)nc(SCCCCCCCCCC)n1 [Compound S10S16D3] | 1.7% | 9.5% |
| CCCCCCCCCCCCCCCCSc1nc(NCCN2CCCCC2)nc(SCCCCCCCCCC)n1 [Compound S10S16D4] | 0.8% | 9.1% |
| CCCCCCCCCCCCCCCCSc1nc(NCCN2CCN(C)CC2)nc(SCCCCCCCCCC)n1 [Compound S10S16D5] | 13.6% | 9.4% |
| CCCCCCCCCCCCCCCCSc1nc(NCCCN(C)C)nc(SCCCCCCCCCC)n1 [Compound S10S16D6] | 41.6% | 14.1% |
| CCCCCCCCCCCCCCCCSc1nc(NCCN(CC)CC)nc(SCCCCCCCCCC)n1 [Compound S10S16D7] | 0.7% | 3.1% |
| CCCCCCCCCCCCCCCCSc1nc(NCCCN2CCOCC2)nc(SCCCCCCCCCC)n1 [Compound S10S16D8] | 4.0% | 15.7% |
| CCCCCCCCCCCCCCCCSc1nc(NCCCN2CCN(C)CC2)nc(SCCCCCCCCCC)n1 [Compound S10S16D9] | 19.9% | 7.8% |
| CCCCCCCCCCCCCCCCCCSc1nc(NCCN(C)C)nc(SCCCCCCCCCC)n1 [Compound S10S18D1] | 3.5% | 9.9% |
| CCCCCCCCCCCCCCCCCCSc1nc(NCCN2CCOCC2)nc(SCCCCCCCCCC)n1 [Compound S10S18D2] | 0.2% | 1.6% |
| CCCCCCCCCCCCCCCCCCSc1nc(NCCN2CCCC2)nc(SCCCCCCCCCC)n1 [Compound S10S18D3] | 21.5% | 11.1% |

Reference: patent US20230123334A1, “AMINO LIPID COMPOUND, PREPARATION METHOD THEREFOR, AND APPLICATION THEREOF” (SHENZHEN SHENXIN BIOTECHNOLOGY CO., LTD., priority 2020, published 2023)
